Measured values as given in ChEMBL document CHEMBL3885881, “DrugMatrix”.

Species on record: Rattus norvegicus
Experiment: DrugMatrix - Regimen: Daily Repeat
Assay type: toxicity, organism-based, Sprague-Dawley
Set-up: regimen Daily Repeat, gender Male, age 6-8 weeks
Settings: in vivo, po, route oral GAVAGE, vehicle .5 % CMC; for ABSOLUTE BASOPHIL / ABSOLUTE EOSINOPHIL / ABSOLUTE LYMPHOCYTE / ABSOLUTE MONOCYTE / ABSOLUTE SEGMENTED NEUTROPHIL / BASOPHIL / EOSINOPHIL / HEMATOCRIT / HEMOGLOBIN / LEUKOCYTE COUNT / LYMPHOCYTE / MEAN CORPUSCULAR HEMOGLOBIN / MEAN CORPUSCULAR HEMOGLOBIN CONCENTRATION / MEAN CORPUSCULAR VOLUME / MONOCYTE / NEUTROPHIL / NUCLEATED RED BLOOD CELLS / PLATELET COUNT: tissue Blood; for ALANINE AMINOTRANSFERASE / ALBUMIN / ALKALINE PHOSPHATASE / ASPARTATE AMINOTRANSFERASE / BLOOD UREA NITROGEN / CARBON DIOXIDE / CHLORIDE / CHOLESTEROL / CREATINE PHOSPHOKINASE / CREATININE / GLUCOSE / LACTATE DEHYDROGENASE / LIPASE / PHOSPHORUS / POTASSIUM / SODIUM / TOTAL BILIRUBIN / TOTAL PROTEIN / URIC ACID: tissue Plasma
[1] = 150 mg/kg, 72 h, dose level Low, time 3 day
[2] = 150 mg/kg, 120 h, dose level Low, time 5 day
[3] = 1500 mg/kg, 72 h, dose level High, time 3 day
[4] = 1500 mg/kg, 120 h, dose level High, time 5 day

CC(C)(C)NCC(O)COc1cccc2c1CC(O)C(O)C2 (stereo not drawn) [NADOLOL]
ABSOLUTE BASOPHIL [1]: 0 CELLS/uL
ABSOLUTE EOSINOPHIL [1]: 43.33 CELLS/uL
ABSOLUTE LYMPHOCYTE [1]: 11948.67 CELLS/uL
ABSOLUTE MONOCYTE [1]: 0 CELLS/uL
ABSOLUTE SEGMENTED NEUTROPHIL [1]: 1241.33 CELLS/uL
BASOPHIL [1]: 0%
EOSINOPHIL [1]: 0.33%
HEMATOCRIT [1]: 34.8%
HEMOGLOBIN [1]: 13.13 G/DL
LEUKOCYTE COUNT [1]: 13.23 x10E3/uL
LYMPHOCYTE [1]: 90.33%
MEAN CORPUSCULAR HEMOGLOBIN [1]: 24.5 pg
MEAN CORPUSCULAR HEMOGLOBIN CONCENTRATION [1]: 37.73 G/DL
MEAN CORPUSCULAR VOLUME [1]: 64.87 fL
MONOCYTE [1]: 0%
NEUTROPHIL [1]: 9.33%
NUCLEATED RED BLOOD CELLS [1]: 0 /100WBC
PLATELET COUNT [1]: 1238.33 x10E3/uL
ALANINE AMINOTRANSFERASE [1]: 44 u/L
ALBUMIN [1]: 4.17 G/DL
ALKALINE PHOSPHATASE [1]: 391.33 u/L
ASPARTATE AMINOTRANSFERASE [1]: 75.33 u/L
BLOOD UREA NITROGEN [1]: 17 mg/dL
CARBON DIOXIDE [1]: 24.67 mmol/L
CHLORIDE [1]: 104 MEQ/L
CHOLESTEROL [1]: 82.33 mg/dL
CREATINE PHOSPHOKINASE [1]: 224 u/L
CREATININE [1]: 0.22 mg/dL
GLUCOSE [1]: 176.33 mg/dL
LACTATE DEHYDROGENASE [1]: 97 u/L
LIPASE [1]: 8 u/L
PHOSPHORUS [1]: 14.9 mg/dL
POTASSIUM [1]: 6.65 MEQ/L
SODIUM [1]: 146.1 MEQ/L
TOTAL BILIRUBIN [1]: 0.23 mg/dL
TOTAL PROTEIN [1]: 6.1 G/DL
URIC ACID [1]: 2 mg/dL
ABSOLUTE BASOPHIL [2]: 0 CELLS/uL
ABSOLUTE EOSINOPHIL [2]: 50.33 CELLS/uL
ABSOLUTE LYMPHOCYTE [2]: 8337.33 CELLS/uL
ABSOLUTE MONOCYTE [2]: 0 CELLS/uL
ABSOLUTE SEGMENTED NEUTROPHIL [2]: 679 CELLS/uL
BASOPHIL [2]: 0%
EOSINOPHIL [2]: 0.67%
HEMATOCRIT [2]: 35.83%
HEMOGLOBIN [2]: 13.37 G/DL
LEUKOCYTE COUNT [2]: 9.07 x10E3/uL
LYMPHOCYTE [2]: 91.67%
MEAN CORPUSCULAR HEMOGLOBIN [2]: 24.27 pg
MEAN CORPUSCULAR HEMOGLOBIN CONCENTRATION [2]: 37.37 G/DL
MEAN CORPUSCULAR VOLUME [2]: 64.93 fL
MONOCYTE [2]: 0%
NEUTROPHIL [2]: 7.67%
NUCLEATED RED BLOOD CELLS [2]: 0 /100WBC
PLATELET COUNT [2]: 1254.33 x10E3/uL
ALANINE AMINOTRANSFERASE [2]: 46.33 u/L
ALBUMIN [2]: 4.17 G/DL
ALKALINE PHOSPHATASE [2]: 380.67 u/L
ASPARTATE AMINOTRANSFERASE [2]: 77.67 u/L
BLOOD UREA NITROGEN [2]: 14.67 mg/dL
CARBON DIOXIDE [2]: 29.67 mmol/L
CHLORIDE [2]: 101 MEQ/L
CHOLESTEROL [2]: 84.67 mg/dL
CREATINE PHOSPHOKINASE [2]: 179 u/L
CREATININE [2]: 0.19 mg/dL
GLUCOSE [2]: 140.33 mg/dL
LACTATE DEHYDROGENASE [2]: 101 u/L
LIPASE [2]: 8.67 u/L
PHOSPHORUS [2]: 10.8 mg/dL
POTASSIUM [2]: 6.14 MEQ/L
SODIUM [2]: 147.83 MEQ/L
TOTAL BILIRUBIN [2]: 0.27 mg/dL
TOTAL PROTEIN [2]: 5.93 G/DL
URIC ACID [2]: 0.8 mg/dL
ABSOLUTE BASOPHIL [3]: 0 CELLS/uL
ABSOLUTE EOSINOPHIL [3]: 179 CELLS/uL
ABSOLUTE LYMPHOCYTE [3]: 10744.33 CELLS/uL
ABSOLUTE MONOCYTE [3]: 0 CELLS/uL
ABSOLUTE SEGMENTED NEUTROPHIL [3]: 1443.33 CELLS/uL
BASOPHIL [3]: 0%
EOSINOPHIL [3]: 1.33%
HEMATOCRIT [3]: 32.37%
HEMOGLOBIN [3]: 12.3 G/DL
LEUKOCYTE COUNT [3]: 12.37 x10E3/uL
LYMPHOCYTE [3]: 87.67%
MEAN CORPUSCULAR HEMOGLOBIN [3]: 24.6 pg
MEAN CORPUSCULAR HEMOGLOBIN CONCENTRATION [3]: 38 G/DL
MEAN CORPUSCULAR VOLUME [3]: 64.77 fL
MONOCYTE [3]: 0%
NEUTROPHIL [3]: 11%
NUCLEATED RED BLOOD CELLS [3]: 0 /100WBC
PLATELET COUNT [3]: 1241.33 x10E3/uL
ALANINE AMINOTRANSFERASE [3]: 51.33 u/L
ALBUMIN [3]: 3.9 G/DL
ALKALINE PHOSPHATASE [3]: 378.33 u/L
ASPARTATE AMINOTRANSFERASE [3]: 79.33 u/L
BLOOD UREA NITROGEN [3]: 16 mg/dL
CARBON DIOXIDE [3]: 24.67 mmol/L
CHLORIDE [3]: 109.33 MEQ/L
CHOLESTEROL [3]: 85 mg/dL
CREATINE PHOSPHOKINASE [3]: 126 u/L
CREATININE [3]: 0.15 mg/dL
GLUCOSE [3]: 170 mg/dL
LACTATE DEHYDROGENASE [3]: 86.33 u/L
LIPASE [3]: 8 u/L
PHOSPHORUS [3]: 14.57 mg/dL
POTASSIUM [3]: 7.08 MEQ/L
SODIUM [3]: 148.37 MEQ/L
TOTAL BILIRUBIN [3]: 0.17 mg/dL
TOTAL PROTEIN [3]: 5.63 G/DL
URIC ACID [3]: 2.2 mg/dL
ABSOLUTE BASOPHIL [4]: 0 CELLS/uL
ABSOLUTE EOSINOPHIL [4]: 191.67 CELLS/uL
ABSOLUTE LYMPHOCYTE [4]: 13307.33 CELLS/uL
ABSOLUTE MONOCYTE [4]: 0 CELLS/uL
ABSOLUTE SEGMENTED NEUTROPHIL [4]: 867.67 CELLS/uL
BASOPHIL [4]: 0%
EOSINOPHIL [4]: 1.33%
HEMATOCRIT [4]: 33.3%
HEMOGLOBIN [4]: 12.53 G/DL
LEUKOCYTE COUNT [4]: 14.37 x10E3/uL
LYMPHOCYTE [4]: 92.67%
MEAN CORPUSCULAR HEMOGLOBIN [4]: 23.37 pg
MEAN CORPUSCULAR HEMOGLOBIN CONCENTRATION [4]: 37.67 G/DL
MEAN CORPUSCULAR VOLUME [4]: 62.2 fL
MONOCYTE [4]: 0%
NEUTROPHIL [4]: 6%
NUCLEATED RED BLOOD CELLS [4]: 0 /100WBC
PLATELET COUNT [4]: 1258.33 x10E3/uL
ALANINE AMINOTRANSFERASE [4]: 44.67 u/L
ALBUMIN [4]: 3.9 G/DL
ALKALINE PHOSPHATASE [4]: 343 u/L
ASPARTATE AMINOTRANSFERASE [4]: 80 u/L
BLOOD UREA NITROGEN [4]: 16.33 mg/dL
CARBON DIOXIDE [4]: 25.33 mmol/L
CHLORIDE [4]: 103.67 MEQ/L
CHOLESTEROL [4]: 74 mg/dL
CREATINE PHOSPHOKINASE [4]: 262 u/L
CREATININE [4]: 0.21 mg/dL
GLUCOSE [4]: 152.33 mg/dL
LACTATE DEHYDROGENASE [4]: 268.33 u/L
LIPASE [4]: 8 u/L
PHOSPHORUS [4]: 13 mg/dL
POTASSIUM [4]: 6.63 MEQ/L
SODIUM [4]: 146.2 MEQ/L
TOTAL BILIRUBIN [4]: 0.13 mg/dL
TOTAL PROTEIN [4]: 5.7 G/DL
URIC ACID [4]: 1.47 mg/dL
